ChEMBL document CHEMBL1137175, “Nonpeptide alpha V beta 3 antagonists. Part 9: Improved pharmacokinetic profile through the use of an aliphatic, des-amide backbone” (Bioorg Med Chem Lett, 2004)

How the values were obtained:
Integrin alpha-V/beta-3 [1] = target: T1, Integrin alpha-V/beta-3 (Homo sapiens, UniProt P05106+P06756); test: Inhibition of binding to alpha v beta 3 receptor; assay type: protein-complex assay
Integrin alpha-V/beta-3 [2] = target: T1, Integrin alpha-V/beta-3; test: Inhibition of alpha v beta 3 receptor binding; assay type: protein-complex assay
[3] = Oral bioavailability in dog; assay type: ADME, organism-based, Canis lupus familiaris; details: in vivo
[4] = Half life of compound is determined in dogs; assay type: ADME, Canis lupus familiaris; details: dog, in vivo
[5] = Partition coefficient (logP); assay type: physicochemical; details: octanol/water
[6] = Concentration required for plasma clearance is determined in dogs; assay type: ADME, organism-based, Canis lupus familiaris; details: dog

T1 sequence (P05106 27-788 limits assumed): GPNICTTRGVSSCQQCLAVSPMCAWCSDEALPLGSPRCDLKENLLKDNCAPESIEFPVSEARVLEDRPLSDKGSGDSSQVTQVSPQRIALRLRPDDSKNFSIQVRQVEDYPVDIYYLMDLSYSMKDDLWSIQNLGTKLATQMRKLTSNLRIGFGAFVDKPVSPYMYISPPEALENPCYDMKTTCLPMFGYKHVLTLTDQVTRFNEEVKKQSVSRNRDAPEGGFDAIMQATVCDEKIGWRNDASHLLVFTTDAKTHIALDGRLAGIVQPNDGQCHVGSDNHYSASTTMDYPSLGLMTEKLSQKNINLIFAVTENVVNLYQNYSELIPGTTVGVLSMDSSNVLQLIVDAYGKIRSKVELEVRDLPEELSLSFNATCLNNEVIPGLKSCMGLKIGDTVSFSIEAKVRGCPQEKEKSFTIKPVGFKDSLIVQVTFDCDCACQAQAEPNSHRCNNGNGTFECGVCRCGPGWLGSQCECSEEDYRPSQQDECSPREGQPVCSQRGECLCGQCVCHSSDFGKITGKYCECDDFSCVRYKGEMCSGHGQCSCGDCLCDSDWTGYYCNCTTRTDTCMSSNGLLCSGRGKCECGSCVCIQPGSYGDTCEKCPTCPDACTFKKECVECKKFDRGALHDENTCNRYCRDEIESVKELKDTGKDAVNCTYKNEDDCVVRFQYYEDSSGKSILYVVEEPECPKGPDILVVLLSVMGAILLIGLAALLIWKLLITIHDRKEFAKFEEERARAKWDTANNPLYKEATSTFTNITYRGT
T1 sequence (P06756 31-889 limits assumed): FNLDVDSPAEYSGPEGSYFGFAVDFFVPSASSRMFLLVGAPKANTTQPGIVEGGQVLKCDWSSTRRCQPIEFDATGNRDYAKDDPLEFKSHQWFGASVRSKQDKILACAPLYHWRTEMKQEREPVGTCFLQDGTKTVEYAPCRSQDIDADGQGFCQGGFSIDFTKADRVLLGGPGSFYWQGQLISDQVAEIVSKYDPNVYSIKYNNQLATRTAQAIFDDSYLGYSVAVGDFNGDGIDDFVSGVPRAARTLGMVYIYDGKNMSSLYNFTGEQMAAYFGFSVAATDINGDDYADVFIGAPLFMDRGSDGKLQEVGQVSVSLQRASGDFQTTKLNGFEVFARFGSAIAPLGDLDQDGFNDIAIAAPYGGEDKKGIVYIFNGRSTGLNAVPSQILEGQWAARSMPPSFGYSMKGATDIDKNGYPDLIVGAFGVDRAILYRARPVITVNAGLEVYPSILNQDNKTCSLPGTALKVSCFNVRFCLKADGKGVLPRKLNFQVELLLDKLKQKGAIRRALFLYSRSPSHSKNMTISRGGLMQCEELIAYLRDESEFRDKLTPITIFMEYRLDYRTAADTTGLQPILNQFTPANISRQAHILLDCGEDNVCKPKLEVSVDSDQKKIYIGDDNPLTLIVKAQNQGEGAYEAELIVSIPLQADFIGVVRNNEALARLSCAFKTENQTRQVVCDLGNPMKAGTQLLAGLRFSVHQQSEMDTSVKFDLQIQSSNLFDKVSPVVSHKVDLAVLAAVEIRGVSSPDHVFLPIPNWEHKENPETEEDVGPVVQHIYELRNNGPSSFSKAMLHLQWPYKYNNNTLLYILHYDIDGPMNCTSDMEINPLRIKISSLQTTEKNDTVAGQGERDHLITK
T1 sequence (P06756 891-1048 limits assumed): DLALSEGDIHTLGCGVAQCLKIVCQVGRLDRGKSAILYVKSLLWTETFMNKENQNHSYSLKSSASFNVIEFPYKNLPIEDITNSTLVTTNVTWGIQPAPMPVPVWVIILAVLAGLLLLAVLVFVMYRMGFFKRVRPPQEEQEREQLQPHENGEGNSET

Compound | IC50 (Integrin alpha-V/beta-3 [1]) [nM] | IC50 (Integrin alpha-V/beta-3 [2]) [nM] | also measured
O=C(CCCCc1ccc2c(n1)NCCC2)NC[C@H](NC(=O)c1ccccc1)C(=O)O |  | 73.8 | 
O=C(O)[C@H](CCCCCCCc1ccc2c(n1)NCCC2)NS(=O)(=O)CC1CCCCC1 | 18.1 |  | 
O=C(N[C@@H](CCCCCCCc1ccc2c(n1)NCCC2)C(=O)O)c1ccccc1 | 71.7 |  | 
CCCCS(=O)(=O)N[C@@H](CNC(=O)CCCCc1ccc2c(n1)NCCC2)C(=O)O |  | 2.3 | 
CC1(C)[C@@H]2CC[C@@]1(CS(=O)(=O)N[C@@H](CCCCCCCc1ccc3c(n1)NCCC3)C(=O)O)C(=O)C2 | 0.8 |  | 
CCCCS(=O)(=O)N[C@@H](CCCCCCCc1ccc2c(n1)NCCC2)C(=O)O | 21.3 |  | 
Cc1ccc(S(=O)(=O)N[C@@H](CNC(=O)CCCCc2ccc3c(n2)NCCC3)C(=O)O)cc1 |  | 0.4 | 
O=C(O)[C@H](CCCCCCCc1ccc2c(n1)NCCC2)NS(=O)(=O)C1CCCCC1 | 49.8 |  | 
O=C(O)[C@H](CCCCCCCc1ccc2c(n1)NCCC2)NS(=O)(=O)c1ccccc1 | 11.2 |  | 
O=C(NCc1ccccc1)N[C@@H](CCCCCCCc1ccc2c(n1)NCCC2)C(=O)O | 4.7 |  | 

Second part, led by results:

IC50 (Integrin alpha-V/beta-3 [1]) [nM] | IC50 (Integrin alpha-V/beta-3 [2]) [nM] | Compound | also measured
34.5 |  | O=C(O)[C@H](CCCCCCCc1ccc2c(n1)NCCC2)NS(=O)(=O)Cc1ccccc1 | 
 | 0.3 | O=C(CCCCc1ccc2c(n1)NCCC2)NC[C@H](NS(=O)(=O)c1ccccc1)C(=O)O | 
 | 0.1 | CC1(C)[C@@H]2CC[C@@]1(CS(=O)(=O)N[C@@H](CNC(=O)CCCCc1ccc3c(n1)NCCC3)C(=O)O)C(=O)C2 | 
51.6 |  | O=C(Cc1ccccc1)N[C@@H](CCCCCCCc1ccc2c(n1)NCCC2)C(=O)O | bioavailability [3]: 17%; half-life [4]: 19.2 h; logP [5]: 1.13; clearance [6]: 0.78 L/h/kg
 | 1.8 | O=C(CCCCc1ccc2c(n1)NCCC2)NC[C@H](NC(=O)OCc1ccccc1)C(=O)O | 
6.1 |  | O=C(N[C@@H](CCCCCCCc1ccc2c(n1)NCCC2)C(=O)O)OCc1ccccc1 | 
